A word on the inhibition: it is the share of the control response that was lost under treatment. Low readings indicate a response near the control, high ones a response far below the control.

In brackets after ≈: the same amount, converted by molar mass. Several values for one entry are separate records, joined by “and”; a condition that tells them apart may be missing. Equal entries are not always repeated.

From patent US6387948B1, “8-Acetylarteminolide and process for preparing same” (Korea Research Institute of Bioscience and Biotechnology, priority 2000, dated 2002) come the findings set out here.

Data set [1] concerns Human breast cancer cell line MCF-7. Kind of data set: Cell-cycle inhibiting activity, propidium iodide FACS analysis. It is filed as cell-based. The conditions noted are these: for % of cells G0/G1 phase / % of cells G2/M phase / % of cells S phase: 7.5 μl of 5 mg/ml DMSO solution in 7.5 ml medium. As for the experimental part: Human breast cancer cell line MCF-7(ATCC HTB-22) was divided into 7.5 ml portions of RPMI1640 culture medium(GIBCO BRL) kept in T25 flasks and incubated at 37° C. under an atmosphere containing 5% CO2 for 12 hours. Added to the cell cultures of one group of flasks was 7.5 μl of DMSO solution containing 5 mg/ml of 8-acetylarteminolide obtained in Example 1, while 7.5 μl of pure DMSO was added to the cultures of another group of flasks as a control, followed by incubation at 37° C. under an atmosphere containing 5% CO2 for 12, 24 and 36 hours, respectively.
To examine the activity of inventive compound in inhibiting the progression of the cell cycle, each of the cultures was treated with trypsin and centrifuged at 200×g for 5 minutes, and then, the cell precipitate was washed twice with cold PBS. 3 ml of 70% ethanol was added thereto and the resulting mixture was left standing at −20° C. for 12 hours to fix the cell. The resulting mixture was centrifuged at 200×g for 5 minutes and the cell precipitate was washed twice with PBS to remove remaining ethanol. Added to the cell precipitate in sequence were 1 ml of PBS and 50 μl RNase A solution(100 μg/ml). The mixture was reacted at 37° C. for 30 minutes and 10 μl of PBS containing 1 mg/ml of propidium iodide was added thereto.
The cell cycles of 20,000 stained cells were analyzed by using Becton-Dickinson FACS Calibur and Becton-Dickinson Modifit cell-cycle analysis program.

The target in data set [2] is T1, farnesyl-protein transferase(FPTase) (Rattus norvegicus, UniProt Q02293+Q04631).
T1 construct: the cerebrum of a white rat(male Sprague Dowley weighing 100-150 g) was washed with physiological saline solution and homogenized; from tissue; host or cells: rat cerebrum (male Sprague Dawley)
Kind of data set: Farnesyl-protein transferase inhibiting activity, scintillation proximity assay (SPA). It is filed as biochemical, white rat. The following applies: rat cerebrum FPTase, 3H-FPP, biotin-lamin B peptide; read-out: concentration required for inhibiting farnesyl protein transferase by 50%(IC50) (converted). On the procedure: Farnesyl-protein transferase(FPTase) activity was determined in accordance with the scintillation proximity assay(SPA) method of Blown et al. described in Cell, 62, 1(1990) by using ^3H-farnesyl pyrophosphate(^3H-FPP) as a substrate.
First, the cerebrum of a white rat(male Sprague Dowley weighing 100-150 g) was washed with physiological saline solution and homogenized. The homogenized solution was centrifuged and partially purified by using Q sepharose fast flow column(Pharmacia, co.) to obtain famnesyl protein transferase(FPTase).
10 μl of 8-acetylarteminolide, 40 μl of FPTase obtained above, 10 μl of an assay buffer(50 mM Tris-HCl, pH 7.5, 25 mM MgCl2, 2 mM KCl, 5 mM DTT, 5 mM Na2HPO4, 0.01% Triton X-100), 20 μl of diluted ^3H-FPP and 20 μl of biotin-lamin B peptide were mixed together and the resulting mixture was reacted at room temperature for 30 minutes. 150 μl of SPA bead/stop reagent solution(Amersham, Inc. UK) was added to the mixture and the enzymatic activity was determined by examining the extent of biotin-lamin B peptide farneslyation, expressed by unit of count per minute(CPM), with a liquid scintillation counter.
The FPTase inhibiting activity was then calculated in accordance with the following equation: [formula] […]
On the technique in general: Scintillation proximity formats need no separation of bound from free tracer.

In data set [3] the test system is Human breast cancer cell line MCF-7. Briefly: Cell-cycle inhibiting activity, propidium iodide FACS analysis. It is filed as cell-based. The following applies: MCF7, G2 to M phase progression, read-out: concentration required for inhibiting the progression of the cell cycle by 50%. (In general: A flow cytometer gives signals particle by particle.)
Data set [4] in a line: Solubility (physicochemical properties).
The next data set has as its system Angiogenesis. Kind of data set: Angiogenesis-suppressing activity, chorioallantoic membrane(CAM) assay. It is filed as in vivo. The following applies: Gallus gallus; 10 μg/ml, CAM of fertilized chicken eggs. On the procedure:
Angiogenesis was determined in accordance with the chorioallantoic membrane(CAM) assay method described in Kusaka et al., Biochem. Biophy. Res. Comm., 174, 1070(1991), using fertilized chicken eggs.
A fertilized chicken egg(Pulmuwon co., Korea) was incubated at 37-38° C. and a humidity of more than 90%. Here, 0 day-embryo means that the fertilized egg had been stored at 18° C. for less than 4 days since laying.
The pointed end of the fertilized egg was scratched with a knife, laid horizontally, the scratched site was punctured with a 5 ml syringe and 2 ml of albumin was extracted from the fertilized egg. The puncture hole was then sealed with a glass-tape. The fertilized egg, positioned such that the sealed hole was at the bottom, was incubated under the same condition described above.
The end of the fertilized egg where the air sac is located, i.e., the end opposite to the hole site was opened, a window having a diameter of 2-3 cm was installed therein, the window was sealed with a glass-tape, and the incubation was resumed.
By this time, a CAM of 2-5 mm diameter had developed. 8-Acetylarteminolide was dissolved in ethanol to a concentration of 10 μg/ml, 10 μl of the solution was dropped on quartered Thermanox coverslip(Nunc, Co.,) and dried in a clean bench. […]
Angiogenesis suppressing activity was then calculated in accordance with the following equation: [formula]

As to `C=C1C(=O)OC2C1CCC(C)(O)C13C=CC(C)(C21)C1(C3)C(=O)OC2C3C(C)=CC(=O)C3=C(C)CC(OC(C)=O)C21` (stereo not shown) [8-acetylarteminolide], in data set [1] (MCF-7, 12 hours), the “% of cells G0/G1 phase” value stood at 47.59%, the “% of cells G2/M phase” value is reported as 18.06% and the “% of cells S phase” value is 34.35%. In data set [1] (MCF-7, 24 hours), the “percentage of cells in the G2/M phase compared to the control cells” value is reported as 10 fold, the “% of cells G0/G1 phase” value was determined as 47.49%, the “% of cells G2/M phase” value was 27.97% and the “% of cells S phase” value was found to be 24.54%. Also, in data set [1] (MCF-7, 36 hours), the “percentage of cells in the G2/M phase compared to the control cells” value is “two-fold higher”, the “% of cells G0/G1 phase” value came to 73.2%, the “% of cells G2/M phase” value came to 19.79% and the “% of cells S phase” value is listed as 7.01%. Moreover, in data set [2], the IC50 is ~1.82 µM and ~1.8 µM and 1.82 µM and 1.8 µM. For the same molecule, the IC50 in data set [3] was around 5 µg/mL (≈ 9.11 µM). For the same molecule, the “Solubility Insoluble:” value in data set [4] (solvents in which insoluble) was “hexane, H2O”. The “Solubility Soluble:” value in data set [4] (solvents in which soluble) is reported as “alcohol, acetone, chloroform, DMSO”. In the data set on Angiogenesis, this molecule showed an inhibition at 10 µg/mL of 60%.
